As usually defined, the melting point is the temperature of the solid-liquid transition.

The structures appear in SMILES notation. Where only a bound is given, the exact number is not on record here.

91 compounds from a melting point compilation (Tetko et al.; mined from patent text by program, amines drawn as free bases though some values may be those of a salt) can be followed below.

Turning to `O=C(CCCCCCCBr)OC(C(=O)c1ccccc1)c1ccccc1` (stereo unspecified), the melting point is 60 to 61 °C.
`O=c1ccc(S(=O)(=O)c2oc3ccc(Cl)cc3c2O)n[nH]1` gave a melting point above 240 °C.
With `O=C(O)c1ccc2c(c1)C(=O)CCC2`, the melting point fell in the range of 210 to 215 °C.
In turn, `OC(CCN1CCN(c2ccccn2)CC1)COc1ccc(F)cc1` (stereo unspecified) came in with a melting point of 72 to 73 °C.
`COC(=O)c1cc(C(F)(F)F)[nH]c1-c1ccc(Cl)cc1` came in with a melting point of 120 to 122 °C.
As for `CN(C)Cc1nnc(CN2C(=O)c3ccccc3C2=O)n1-c1ccc(Cl)cc1C(=O)c1ccccc1`, the melting point fell in the range of 206 to 208 °C.
The result for `O=C1c2ccccc2C(=O)c2c1cccc2N1CCN(CCO)CC1` reads 140 °C; that for `OC1CSC(Oc2cccnc2-c2ccncc2)C(O)C1O` (stereo unspecified), 129 °C; that for `CC(C)(C)c1cc(NC(=O)NCCCl)cc(C(C)(C)C)c1O`, 169 to 171 °C.
In turn, `Clc1cc2c(-c3ccccc3)coc2c2ccccc12` came in with a melting point of 66 to 69 °C.
The result for `Cc1noc(NS(=O)(=O)c2cccc(C(F)(F)F)c2)c1Br` reads 113 to 115 °C.
Compound `CS(=O)CCNC(=O)c1cccc(-c2ccc3c(c2)C(c2cc(Cl)ccc2Cl)CC3)c1` (stereo unspecified) displayed a melting point of 136 to 138 °C.
Compound `COc1ccc2[nH]ccc(=O)c2c1OCc1ccccc1` showed a melting point of 171 to 172 °C.
`CCC[C@H]1C=C(C(=O)OCC)OC(=O)[C@H]1Cc1ccccc1` gave a melting point of 77 to 81 °C.
`CCCCC(CNc1nc(C)c(O)c(C(C)C)n1)c1ccccc1` (stereo unspecified) displayed a melting point of 60 to 61 °C.
For the compound `Nc1nc(-c2ccccc2)c2cc(Cl)cc(Cl)c2n1`, the melting point is 213 °C.
Consider `CCOC(=O)CCCSc1nnc(S)s1`, for which the melting point fell in the range of 107 to 108 °C.
The figure for `COc1cc(C=CC(=O)OCCCCBr)ccc1O` is 86 to 89 °C.
`O=C(N[C@H]1CC[C@H](CCN2CCC(c3cccc4c3CCO4)CC2)CC1)c1ccc(N2CCOCC2)nc1`: the melting point came out at 228 °C.
The compound `CC(CNC(=O)Nc1ccc([N+](=O)[O-])cc1O)OCc1ccccc1` (stereo unspecified) registered a melting point of 64.6 to 65.2 °C.
The figure for `Fc1nc(Cl)c2cc[nH]c2n1` is 180 °C.
In the case of `CC1Cc2cc(N)ccc2C1=O` (stereo unspecified), the melting point fell in the range of 151 to 152 °C.
With `Cc1ccc(S(=O)(=O)NC(C)(C)C(C)C)cc1`, the melting point was 80 to 89 °C.
The result for `O=C(c1ccccc1)C(Br)OCc1ccc(Cl)cc1Cl` (stereo unspecified) reads 89 to 91 °C; that for `COC1CN(CC2CCCO2)CCC1NC(=O)c1cc(Cl)c(N)c2c1OCCC2` (stereo unspecified), 158 °C.
`CCONC(=O)c1ccc(-c2cccc(CN(C)CCCc3ccccc3)c2)cn1` had a melting point of 50 to 55 °C.
As for `CC(=O)Oc1ccc(CC(CCC(=O)O)N2C(=O)c3ccccc3C2=O)cc1` (stereo unspecified), the melting point was in the range of 142 to 144 °C.
Turning to `COc1cc2c3c(cccc3c1[N+](=O)[O-])C(=O)N(O)C2=O`, the melting point fell in the range of 264 to 265 °C.
Turning to `CSCC[C@@H](NC(=O)OC(C)(C)C)C(=O)Nc1ccc(N2C[C@H](CNC(=O)c3ccc(Cl)s3)OC2=O)cc1`, the melting point worked out at 183 °C.
In turn, `CN(C)C1(Cc2ccccc2)CCC(O)(c2cc3ccccc3s2)CC1` (stereo unspecified) registered a melting point of 128 to 131 °C.
Compound `COC(=O)c1ccc(-c2nnc(-c3ccc(C(F)(F)F)cc3)o2)cc1` showed a melting point of 216 to 217 °C.
On to `COC(=O)c1c(C)[nH]c(-c2ncccn2)c1C(=O)OC`, for which the melting point fell in the range of 140 to 146 °C.
`O=C(O)C1CCN2c3ccc(Cl)cc3Oc3ccccc3C2C1` (stereo unspecified): the melting point is 209 to 211 °C.
In the case of `Clc1cccc(CN(c2ncnc3[nH]ncc23)C2CCCC2)c1`, the melting point lay within 186 to 187 °C.
In turn, `CCC1(CCCBr)C(=O)NC(=O)NC1=O` displayed a melting point of 138 to 140 °C.
As to `CCCCCCOc1ccc(Nc2cc(Nc3ccc4c(c3)OCCO4)ncc2F)cc1`, the melting point was 124 to 125 °C.
The result for `CCn1c(=S)c2[nH]c(C(C)C)nc2n(Cc2ccc(OC)c(OC3CCCC3)c2)c1=O` reads 176 to 177 °C.
Turning to `CN(C)CCCCCOc1ccc2oc(-c3ccccc3)cc(=O)c2c1`, the melting point lay in the range of 82 to 83 °C.
The result for `COc1cccc(NC(=O)OC2CN3CCC2CC3)c1` (stereo unspecified) reads 130 to 132 °C; that for `O=c1[nH]c(=O)n(C2OC(CO)C(O)C2F)cc1I` (stereo unspecified), 216 to 217 °C.
In turn, `CNc1nc(NCc2ccc(NC(=O)c3ccc(F)cc3)cc2)c2c(C)cccc2n1` showed a melting point of 228 to 230 °C.
In turn, `CCN(CC)C(=O)COc1cc(-c2ccccc2)nc2ccccc12` had a melting point of 97 °C.
The result for `COc1ccc(-c2ccc(OC)c(C34CC5CC(CC(C5)C3)C4)c2)cc1C12CC3CC(CC(C3)C1)C2` reads 288 to 289 °C.
On to `O=C(O)c1cn(CCc2ccc(Cl)cc2)c2cc(C3CC3)nn2c1=O`, for which the melting point was 220 to 225 °C.
For `CC1=CN2CCS(=O)(=O)N=C2C(c2ccc(OC3CCCCC3)cc2)=N1`, the melting point fell in the range of 216 to 217 °C.
In turn, `O=c1c(O)c(-c2ccc3c(c2)OC(c2ccccc2)(c2ccccc2)O3)oc2cc(O)cc(O)c12` showed a melting point of 239 to 240 °C.
The figure for `Cc1cc(-c2ccc(Cl)c(Cl)c2)nc(-n2cnc(-c3ccc(S(N)(=O)=O)cc3)c2)n1` is 282 °C; for `NCCNC(=O)Nc1ccccc1C(=O)NCC1CCN(C(c2ccccc2)c2ccccc2)CC1` it is 101 to 103 °C; for `CCn1cc(C(=O)Nc2ccccc2)c(=O)n2c3ccccc3nc12` it is 268 to 270 °C.
In the case of `CN1CCN(c2ccc(Nc3cc(-c4cccc(N5Cc6cc(C(C)(C)C)ccc6C5=O)c4CO)cn(C)c3=O)nn2)CC1`, the melting point was 171 to 172 °C.
For the compound `CCCc1nc2ccc(Cl)nc2c(=O)[nH]1`, the melting point fell in the range of 264 to 266 °C.
In turn, `COc1nc(Cl)nc(NC(=O)NS(=O)(=O)c2ccccc2OC(F)F)n1` had a melting point of 167 to 168 °C.
Turning to `CC(=O)C(C#N)=Cc1ccccc1`, the melting point fell in the range of 83 to 84 °C.
Consider `C#Cc1cnc2c(c1)C(=O)N(C)c1cccnc1N2CC`, for which the melting point is 117 to 118 °C.
For the compound `COc1cccc(/C=C/C(=O)Nc2cccc(NC(=N)c3ccccc3)c2)c1`, the melting point was 148 to 149 °C.
With `CC(Cl)c1ccccc1S(N)(=O)=O` (stereo unspecified), the melting point was in the range of 121 to 122 °C.
`CCCc1nc2c(N)nc(C)c(C)c2n1CCCCS(N)(=O)=O`: the melting point is 167 to 169 °C.
The result for `Cc1nnc(-c2ccc3occ(-c4ccc5c(c4)C(C)(C)CS5(=O)=O)c3c2)o1` reads 242 to 243 °C; that for `COC(=O)CC1c2cc(OC)ccc2N(c2nc3ccccc3nc2Cl)C1C` (stereo unspecified), 155 to 157 °C.
Compound `N#CC(C(=O)c1ccc(Cl)cc1)=C1CCCN1Cc1ccc(Cl)nc1` showed a melting point of 142 to 144 °C.
The compound `CC(C)(C)C(NC(=O)CCc1ccccc1)Nc1c(Nc2cccnc2Cl)c(=O)c1=O` (stereo unspecified) showed a melting point of 160 to 161 °C.
`CCCCCCCCCCCCCCOc1cccc(CO)c1`: the melting point was 49 to 50 °C.
`CCOC(=O)c1cnoc1-c1ccc(OC)cc1`: the melting point lay within 54 to 55 °C.
With `OCC1(c2ccc(Cl)cc2)CC1c1ccc(-c2ccccc2)cc1` (stereo unspecified), the melting point was in the range of 168 to 170 °C.
Turning to `CC(C)(C)OC(=O)CCc1cccc(-c2nc(=O)c3ccc(F)cc3s2)n1`, the melting point lay within 158 to 160 °C.
`CCn1nc2c(N)nc3ccccc3c2c1CCc1ccccc1` had a melting point of 179 to 181 °C.
The figure for `CC(CC(=O)O)(C(=O)O)c1ccc(F)cc1` (stereo unspecified) is 149 to 152 °C; for `CC(=O)NC(=Cc1cccs1)C1=NC(=Cc2ccc([N+](=O)[O-])cc2)C(=O)O1` it is 196 to 197 °C; for `COc1ccc(C(=O)NCCN2CCC(Oc3ccc(Cl)c(Cl)c3)CC2)cc1` it is 110 to 112 °C.
The figure for `O=C(CC1CCN(CCc2ccccc2)CC1)c1ccc(F)cc1` is 73 to 74 °C.
In the case of `Clc1ccc2sc(=NCCc3c[nH]c4ccccc34)sc2c1`, the melting point lay within 145 to 147 °C.
Regarding `N#CCc1c(C(=O)O)cc2ccc3c(c2c1-c1ccc(F)cc1)OCO3`, the melting point was in the range of 230 to 233 °C.
The compound `COC(=O)C(C)c1ccc(N2Cc3ccccc3C2=O)cc1` (stereo unspecified) had a melting point of 128 °C.
The figure for `CCOC(=O)Nc1ccc(OCc2ccc(Cl)nc2)cc1F` is 139 °C; for `CCCC1=C(c2ccc(F)c(F)c2)C(=NO)CC1` it is 136 to 137 °C.
`NCc1ccc(CO)cc1`: the melting point lay within 102 to 123 °C.
The figure for `Cc1nn(-c2ccc(C(F)(F)F)cn2)cc1C=O` is 226 to 227 °C.
Regarding `COc1ccc(C(=O)Nc2ccccc2C(=O)NCCCC(=O)O)cc1`, the melting point lay in the range of 172 to 174 °C.
In turn, `COc1ccc(C(=O)Nc2cccnc2)cc1NC(=S)Nc1cccc(C(=O)O)c1` registered a melting point of 191 to 192 °C.
Take `Cc1noc(NS(=O)(=O)c2ccccc2-c2ccc(-c3ncco3)cc2CN(C)C(=O)CC(F)(F)F)c1C`: the melting point was 85 to 100 °C.
For `O=c1[nH]c2cc([N+](=O)[O-])c(S(=O)(=O)c3cccc4cnccc34)cc2o1`, the melting point was above 270 °C.
`c1cnc2ccc(Cn3nnc4ccc(-c5ccc6c(c5)CCO6)nc43)cc2c1` displayed a melting point of 131 to 133 °C.
Regarding `O=C(O)CCCCCSC1=CCCC1=O`, the melting point is 77.5 to 78 °C.
In the case of `CCC(=O)Nc1snc(N(CC)CC)c1C#N`, the melting point fell in the range of 188 to 189 °C.
`CCCCCN(CCCCC)C(=O)C(CCC(=O)O)CS(=O)(=O)c1ccc(C(C)=O)cc1` (stereo unspecified): the melting point lay in the range of 69 to 71 °C.
`CCCCOc1cc2cc(CO)c(CO)c(-c3ccnc(Cl)c3)c2cc1OC` came in with a melting point of 93 to 97 °C.
With `COC(=O)Nc1nc2cc(F)c(OC(C)c3c(Cl)ccc(F)c3Cl)cc2[nH]1` (stereo unspecified), the melting point is 245 to 250 °C.
For `COc1ccc(C(=O)c2ccccc2-c2ccc(C#N)cc2)cc1`, the melting point fell in the range of 121 to 123 °C.
The compound `CC1(C)Cc2ccccc2CC(C)(C)C1O` came in with a melting point of 66 to 68 °C.
For `O=C(Nc1ccc(Oc2ccnc(N3CCCC(O)C3)n2)c2ccccc12)c1cc(F)cc(N2CCCCC2)c1` (stereo unspecified), the melting point lay in the range of 93 to 95 °C.
Consider `O=C(CO)Nc1nc2c(Cl)cccc2s1`, for which the melting point lay in the range of 242 to 245 °C.
